For test [1], the system named is LPDE4. The note with it: literature, Giembycz et al. 2001; cited from earlier work.
For another test, the system named is HPDE4. The note with it: literature, Giembycz et al. 2001; cited from earlier work.
For test [2], the system named is LPDE4. Kind of test: Ability to inhibit low affinity LPDE4 (cAMP disappearance) versus competing for high affinity HPDE4 ([H3]rolipram binding). The format is biochemical. The text has this:
Advantageously the compounds of the invention are characterized by a selectivity toward LPDE4 higher than that toward HPDE4 as obtained by the determination of their IC50. In the case of LPDE4, the IC50 is the molar concentration of the test compound producing 50% inhibition of cAMP disappearance, assessed as described in Cortijo J et al., Br. J. Pharmacol., 1993, 108: 562-568, while in the case of HPDE4, the IC50 is the molar concentration of the test compound producing 50% inhibition of the binding of [H^3] rolipram, assessed as described in Duplantier A J et al., J. Med. Chem., 1996; 39: 120-125. Preferably the HPDE4/LPDE IC50 ratio for the compounds of the invention is higher than 10, more preferably higher than 100, even more preferably higher than 300.
The affinity toward LPDE4 and HPDE4 is assessed as previously described respectively in Cortijo J et al., Br. J. Pharmacol., 1993, 108: 562-568 and Duplantier A J et al., J. Med. Chem., 1996; 39: 120-125. The activity of compounds 1, 2, 4, 5, 6, and 7 is evaluated.

In test [3] the test system is LPS-induced TNF-α release in peripheral blood mononuclear cells (PBMCs). Kind of test: PDE4 inhibitory activity in the PBMCs assay (LPS-induced TNF-α release). In kind it is cell-based. The note with it: PBMC; human PBMCs, LPS 3 ng/ml, 18 hours; read-out: IC50 in the PBMCs assay (50% inhibition of LPS-induced TNF-α release). On the procedure: The assay, which is based on the known inhibitory activity exerted by PDE4 inhibitors on the lipopolyshaccarides (LPS)-induced tumour necrosis factor-alpha (TNF-α release in peripheral blood mononuclear cells (PBMCs), is performed according to a method previously described (Hatzelmann A et al., J. Pharmacol. Exp. Ther., 2001; 297:267-279; and Draheim R et al., J. Pharmacol. Exp. Ther., 2004; 308:555-563. Cryopreserved human PBMCs, (100 μl/well) are incubated in 96-well plates (10^5 cells/well), for 30 minutes, in the presence or absence (50 microl) of the test compounds whose concentrations ranged from 10^−12 M to 10^−6 M. Subsequently, LPS (3 ng/ml) is added. After 18 hours of incubation at 37° C. in a humidified incubator under an atmosphere of 95% air and 5% CO2, culture medium is collected and TNF-α measured by ELISA.
The results are expressed as mean±95% confidence limits of the molar concentration of the test compound producing 50% inhibition of LPS-induced TNF-α release (IC50). […] The effects of the tested compounds are calculated as percentage of inhibition of TNF-α release, assuming LPS-induced TNF-α production in the absence of inhibitor compound as 100% and basal TNF-α production of PBMCs in the absence of LPS as 0%.

One may read the IC50 as the concentration at which inhibition is half-maximal. Regarding `COc1ccc([C@]2(C#N)CC[C@@H](C(=O)O)CC2)cc1OC1CCCC1` [cilomilast], in the test with LPDE4 [1], the HPDE4/LPDE4 ratio result is listed as “about 1.3” and the IC50 is 90 nM. Besides, the IC50 in the test on HPDE4 is 120 nM.
Turning to `COc1ccc(C(=Cc2c(Cl)c[n+]([O-])cc2Cl)OC(=O)c2ccccc2)c2c1oc1ccc([N+](=O)[O-])cc12` [Compound 6, Benzoic acid 2-(3,5-dichloro-1-oxy-pyridin-4-yl)-1-(4-methoxy-8-nitro-dibenzofuran-1-yl)-vinyl ester], the “inhibition of LPDE4 (affinity)” value in the test with LPDE4 [2] is given as “nanomolar affinity”.
On to `COc1ccc(C(=Cc2c(Cl)cncc2Cl)OC(=O)c2ccccc2)c2c1oc1ccccc12` [Compound 2, Benzoic acid 2-(3,5-dichloro-pyridin-4-yl)-1-(4-methoxy-dibenzofuran-1-yl)-vinyl ester], for which the IC50 in test [3] was 1 to 150 nM. Besides, in the test with LPDE4 [2], the “inhibition of LPDE4 (affinity)” value is recorded as “nanomolar affinity”.
On to `COc1ccc(C(=Cc2c(Cl)cncc2Cl)OC(=O)c2ccccc2)c2c1oc1ccc([N+](=O)[O-])cc12` [Compound 1, Benzoic acid 2-(3,5-dichloro-pyridin-4-yl)-1-(4-methoxy-8-nitro-dibenzofuran-1-yl)-vinyl ester], for which the 50% inhibitory concentration (IC50) in test [3] lay within 1 to 150 nM. Moreover, the “inhibition of LPDE4 (affinity)” value with LPDE4 [2] is on record as “nanomolar affinity”.
The corresponding values for `COc1ccc(C(=Cc2c(Cl)cncc2Cl)OC(=O)c2ccccc2)c2c1oc1ccc(N)cc12` [Compound 4, Benzoic acid 2-(3,5-dichloro-pyridin-4-yl)-1-(4-methoxy-8-amino-dibenzofuran-1-yl)-vinyl ester] are 1 to 150 nM and “nanomolar affinity”.
On to `COc1ccc(C(=Cc2c(Cl)cncc2Cl)OC(=O)c2ccccc2)c2c1oc1ccc(NS(C)(=O)=O)cc12` [Compound 5, Benzoic acid 2-(3,5-dichloro-pyridin-4-yl)-1-(8-methanesulfonylamino-4-methoxy-dibenzofuran-1-yl)-vinyl ester], for which the IC50 in test [3] fell in the range of 1 to 150 nM. The “inhibition of LPDE4 (affinity)” value with LPDE4 [2] is given as “nanomolar affinity”.
In the same order, the values of `COc1ccc(C(=Cc2c(Cl)c[n+]([O-])cc2Cl)OC(=O)c2ccccc2)c2c1oc1ccccc12` [Compound 7, Benzoic acid 2-(3,5-dichloro-1-oxy-pyridin-4-yl)-1-(4-methoxy-dibenzofuran-1-yl)-vinyl ester] are 1 to 150 nM and “nanomolar affinity”.
